Laboratory results reported in patent US4602109A, “Novel pesticidal phenoxyphenyl and phenoxypyridyl benzoyl ureas and process for preparation” (Union Carbide Corporation, priority 1984, dated 1986).
Converted amounts (≈) assume the structure as drawn. Like-named read-outs stand apart in the source and are kept apart here.

Key:
Format in all cases: in vivo
[1] = tested on: southern armyworm (Spodoptera eridania); assay: Southern Armyworm Leaf Spray Bait Test; settings: 120 h, read-out: Percent Control after 5 days
Protocol: Suspensions of the test compounds were prepared by dissolving one gram of compound in 50 milliliters of acetone in which had been dissolved 0.1 gram (10 percent of the weight of compound) of an alkylphenoxy polyethoxyethanol surfactant, as an emulsifying or dispersing agent. The resulting solution was mixed into 150 milliliters of water to give roughly 200 milliliters of a suspension containing the compound in finely divided form. The thus-prepared stock suspension contained 0.5 percent by weight of compound.
Certain of the test compounds were also prepared by dissolving 375 mg of compound in 7.5 ml of dimethylformamide. Fifteen ml of acetone containing 37.5 mg (10 percent of the weight of test compound) of an alkylphenoxy polyethoxyethanol surfactant, as a wetting/emulsifying/dispersing agent was added to the dimethylformamide solution. Fifty-two and a half ml of water was mixed into the dimethylformamide-acetone mixture to give roughly 75 ml of a suspension containing the compound in solution or in finely divided form. The thus prepared stock suspension contained 0.5 percent by weight of compound. The test concentrations in parts per million by weight employed in the tests described hereinbelow were obtained by appropriate dilutions of the stock suspension with water. The test procedures were as follows:
Larvae of the southern armyworm (Spodoptera eridania, (Cram.), reared on Tendergreen bean plants at a temperature of 80°±5° F. and a relative humidity of 50±5 percent, constituted the test insects.
The test compounds were formulated by diluting the stock suspension with water to give a suspension containing 500 parts of test compound per million parts of final formulation. Potted Tendergreen bean plants of standard height and age were placed on a revolving turntable and sprayed with 100-110 milliliters of test compound formulation by use of a DeVilbiss spray gun set at 40 psig air pressure. This application, which lasted 25 seconds, was sufficient to wet plants to run-off. As a control, 100-110 milliliters of a water-acetone-emulsifier solution containing no test compound were also sprayed on infested plants. When dry, the paired leaves were separated and each one was placed in a 9 centimeter Petri dish lined with moistened filter paper. Five randomly selected larvae were introduced into each dish and the dishes were closed. The closed dishes were labeled and held at 80°-85° F. for five days. Although the larvae could easily consume the whole leaf within twenty-four hours, no more food was added. Larvae which were unable to move the length of the body, even upon stimulation by prodding, were considered dead. Percent mortality was recorded for various concentration levels.

H. Virecens = assay: Comparison against Heliothis spp: H. Virecens; settings: read-out: LD50, H. Virecens
H. Zea = assay: Comparison against Heliothis spp: H. Zea
[2] = Helicoverpa zea; read-out: LD50, H. Zea

SMILES | mortality at 5 ppm [1] | mortality at 10 ppm [1] | LC50 (H. Virecens) | LC50 (H. Zea; Helicoverpa zea, read-out: LD50, H. Zea) | mortality at 3 ppm [1] | mortality at 6 ppm [1] | mortality at 12 ppm [1] | LC50 (H. Zea; [2]) | mortality at 1.5 ppm [1] | mortality at 20 ppm [1]
O=C(NC(=O)c1c(F)cccc1F)Nc1ccc(Cl)cc1 [1-(4-chlorophenyl)-3-(2,6-difluorobenzoyl)urea, reference compound] | 40% | 100% | 31 µg/mL (≈ 99.8 µM) | 500 µg/mL (≈ 1610 µM) | – | – | – | – | – | –
O=C(NC(=O)c1c(F)cccc1F)Nc1cc(Cl)c(Oc2ccc(S(=O)(=O)c3ccc(Cl)cc3)cc2)c(Cl)c1 [Example 2, 1-(2,6-Difluorobenzoyl)-3-(3,5-dichloro-4-[4-(4-chlorophenylsulfonyl)phenoxy]phenyl)urea] | – | – | 8.5 µg/mL (≈ 13.9 µM) | – | 100% | 90% | 100% | 12.5 µg/mL (≈ 20.4 µM) | – | –
O=C(NC(=O)c1c(F)cccc1F)Nc1ccc(Oc2ccc(S(=O)(=O)c3ccc(Cl)cc3)cc2)c(Cl)c1 [Example 3, 1-(2,6-difluorobenzoyl)-3-(3-chloro-4-[4-((4-chloro-phenylsulfonyl))-phenoxy]phenyl)urea] | – | – | 31 µg/mL (≈ 53.7 µM) | – | 56% | 75% | 100% | 31 µg/mL (≈ 53.7 µM) | – | –
O=C(NC(=O)c1c(F)cccc1Cl)Nc1ccc(Oc2ccc(S(=O)(=O)c3ccc(Cl)cc3)cc2)cc1 [Example 9, 1-(2-chloro-6-fluorobenzoyl)-3-(4-[4-(4-chloro-phenylsulfonyl)phenoxy]-phenyl)urea] | – | – | – | – | – | 100% | – | – | 60% | 100%
